Results as given in EP4623912A1, “A METHOD FOR DEFATTENING A STEATOTIC LIVER EX VIVO” (ETH Zurich, priority 2024, dated 2025).

Columns and labels:
[1] = tested on: male C57BL/6N wild-type mice; experiment: HFD-induced hepatic steatosis (NAFLD) mouse model; format: in vivo; conditions: HFD 12 weeks
Method: Male mice were used for NAFLD induction via feeding on HFD. ROSA26-LSL-spCas9 mice were injected with AAV-U6-Cu/7 gRNAs-TBG-Cre and AAV-U6-Fbxw8 gRNAs-TBG-Cre virus pools at a dose of 3×10^11 genome copies/mouse and fed in HFD for 12 weeks and livers were harvested after 6 hours fasting. To study PI4KB in NAFLD progression, male ROSA26-LSL-spCas9 mice were fed in HFD for 12 weeks to induce fatty liver before induction of hepatocyte specific depletion of PI4KB via intravenous administration of AAV8. After another 8 weeks, mice were dissected to harvest liver after 6 hours fasting. Likewise, male C57BL/6N wild-type mice and liver specific Atgl knockout mice (AtgILKO) were challenged with HFD for 12 weeks to induce fatty liver prior to administration of UCB9608 mixed in HFD (5 mg/kg) for another 8 weeks. Then the mice were dissected to harvest tissues and sample blood after 6 hours fasting Atgl floxed mice (The Jackson Lab strain) were crossed with Albumin-Cre (The Jackson Lab strain) and Adip-CreERT2 strains to obtain Alb-Atgfl^fl/fl and AdipcreERT2-Atgl^fl/fl mice (Sitnick,M.T. et al, Diabetes 62, (2013)), which deplete ATGL protein in the liver and the adipose depots (induced after tamoxifen gavage), respectively. Male mice from both strains were injected with 2-DG (2 g/kg BW) to induce glucose deprivation for 6 hours prior to tissue and blood harvesting.
Adipose depots, liver pieces, differentiated iBAs, HepG2, HEK293T and HEK293-AAV cell types were homogenized in RIPA buffer (50 mM Tris-HCl pH 7.4, 150 mM NaCl, 2 mM EDTA, 1.0% Triton X100, 0.5% sodium deoxycholate) with protease inhibitors (Complete, Roche) and phosphatase inhibitors (Halt phosphatase inhibitor cocktail, ThermoFisher). The homogenates were centrifuged at 12,000×g for 10 min at 4°C to remove debris and collect whole cell extract (WCE). The concentration of WCE was determined by DC Protein Assay (Bio-Rad). After boiling the sample with Lämmeli buffer at 95°C for 5 min, equal amount of proteins was loaded and separated on 12% SDS-PAGE. The proteins were transferred to nitrocellulose membrane and blotted by ATGL (1:1000, Cell Signaling), CGI-58 (1:1000, Proteintech), phospho-HSL(Ser660) (1:1000, Cell Signaling), PLIN1 (1:1000, Cell Signaling), HSL (1:1000, Cell Signaling), γ-tubulin (1:10000, Sigma), FLAG (1:10000, Sigma; 1:1000, Cell Signaling), MGL (1:1000, Abcam), HA (1:1000, Cell signaling), FBXW8 (1:100, Santa Cruz; 1:1000, Sigma), CUL7 (1:100, Santa Cruz), HSP90 (1:1000, Cell Signaling), K48 polyubiquitin (1:1000, Cell signaling), PI4KB (1:1000, Sigma), SACM1L (1:1000, Sigma), AKT1 (1:1000, Cell Signaling), phospho-AKT1(Ser473) (1:1000, Cell Signaling), TGN46 (1:1000, Abcam), MAOA (1:1000, Abcam), PLIN2 (1:1000, Abcam), PMP70 (1:10000, Sigma), Calnexin (1:1000, Cell Signaling), ARF1 (1:1000, Invitrogen), GAPDH (1:1000, Cell Signaling), RAB7 (1:1000, Cell Signaling), alpha 1 Sodium Potassium ATPase (1:1000, Abcam), Cleaved Caspase-3 (1:1000, Cell Signaling), phospho-AMPKα (Thr172) (1:1000, Cell Signaling), AMPKα (1:1000, Cell Signaling) and GM130 (1:1000, Proteintech). […]
Plasma collected from mice under different conditions was used to determine levels of lipolysis and liver injury. FFA levels were measured via NEFA assay kit (Wako NEFA kit). TG levels were determined via TG assay kit (Roche Trig/GB reagent). […] The absorbance was monitored using Synergy Gen5 Platereader.
Weight of liver pieces (50-100 mg) was recorded before homogenization by 1 mL isopropanol per 50 mg tissue. […]

C57BL/6N male mice = experiment: Indirect calorimetry in HFD-fed mice; format: in vivo, mouse; conditions: HFD mixed with UCB9608 (5 mg/kg) 3 weeks, vs DMSO
Method: 8-10 weeks old C57BL/6N male mice were fed on HFD mixing with DMSO or UCB9608 (5 mg/kg) for 3 weeks before indirect calorimetry measurements were performed with Phenomaster (TSE systems) according to the manufacturer's instructions. Animals were single caged and adapted to the metabolic cage for 48h prior to metabolic recording. The energy expenditure between both groups was analyzed via ANCOVA method and RER was analyzed via two-way ANOVA method.

[2] = then UCB9608 in HFD (5 mg/kg) 8 weeks, vs DMSO

Which “ATGL protein levels in the gWAT” value [1, 2] does the source give for COc1ccc(NC(=O)N2CCN(c3nc(N)nc4c3cnn4C)[C@@H](C)C2)c(C)c1 [UCB9608] here?
Its value is “significantly greater”.

And the “ATGL protein levels in the iBAT” value [1, 2]?
The value was “significantly greater”.

What about the “ATGL protein levels in the liver” value [1, 2] of the same molecule?
The value was “significantly greater”.

And the “hepatic steatosis (hepatic TG levels)” value ([1]; then UCB9608 in HFD (5 mg/kg) 8 weeks, requires ATGL in the liver (Fig. 6h))?
The value was “substantially attenuated”.

And the “plasma FFA levels” value ([1]; then UCB9608 mixed in HFD (5 mg/kg) 8 weeks, vs DMSO (Fig. 6g))?
Its value is “significantly increased”.

And the energy expenditure (C57BL/6N male mice)?
Its energy expenditure is “higher”.
